Where a SMILES comes first, the peptide text is derived from it. Bridges are numbered along the chain shown (N, C = ends).
Target: T1, C1a receptor (C1a-type calcitonin receptor) (Rattus norvegicus, UniProt P32214)
T1 construct: expressed in transfected cells
T1 sequence (P32214 25-479 isoform P32214-2 limits assumed): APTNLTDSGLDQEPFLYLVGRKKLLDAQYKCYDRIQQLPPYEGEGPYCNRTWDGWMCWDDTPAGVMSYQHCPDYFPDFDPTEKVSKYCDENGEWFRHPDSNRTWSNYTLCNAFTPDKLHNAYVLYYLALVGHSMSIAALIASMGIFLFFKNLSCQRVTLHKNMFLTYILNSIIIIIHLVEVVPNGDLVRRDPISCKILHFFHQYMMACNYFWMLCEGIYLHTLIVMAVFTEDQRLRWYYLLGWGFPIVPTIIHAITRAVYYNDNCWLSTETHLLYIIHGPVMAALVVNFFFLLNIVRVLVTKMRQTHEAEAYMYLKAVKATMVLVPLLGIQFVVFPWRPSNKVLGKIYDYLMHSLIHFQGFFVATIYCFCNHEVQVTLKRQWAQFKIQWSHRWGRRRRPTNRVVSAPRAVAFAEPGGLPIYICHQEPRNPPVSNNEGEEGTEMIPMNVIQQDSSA
Test: biochemical
Conditions: HEK293 plasma membranes, [35S]-GTPγS 200 pM; read-out: ED50 (nM) Example B (C1a GTPγS)
From the text: Peptide compounds of the present invention may be evaluated for agonist activity using the procedures described in Example B. The plasma membrane preparation of a 7-transmembrane-G-protein coupled receptor (GPCR) contains not only the receptor but also the G-proteins which constitute the first step in the intracellular signal transduction process when the receptor is activated by an agonist ligand. […] Agonist activation of a GPCR is accompanied by displacement of GDP by GTP from this site. Thus, measurement of the binding of a radiolabelled ligand, namely [^35 S]-GTPγS, for this binding site constitutes a measure of agonist potency for a given ligand. For agonism at the C1a receptor, a similar membrane preparation to that described below for the C1a binding studies is used. C1a pcDNA construction and transfection were carried out as previously described (Albrandt et al. 1993, FEBS Letters, 325:225-232). HEK293 cell lines showing stable expression of the rat C1a-type calcitonin receptor (C1a/293) or the human C1a-type calcitonin receptor (1154/293) were selected by G418 resistance and limiting dilution culture methods. Plasma membranes were collected from homogenized HEK293 cells and used in the [^35 S]-GTPγS assay. Individual test peptides at concentrations spanning 6 log units starting at around […] were examined for their ability to bind [^35 S]-GTPγS. Maximum agonist-specific binding was measured in the presence of 1 μM human calcitonin, constitutive binding was measured in the presence of buffer alone. Peptide potencies (EC50 's for concentration response curves) were calculated by non-linear regression using Prism™ (version 2.01, GraphPAD Software, San Diego, Calif.).
[^35 S]-GTPγS C1a Agonist Studies
Evaluation of the agonist activity of compounds versus the C1a receptor was carried out as follows:
Reference peptides used in these studies were purchased from Bachem (Torrance, Calif.). All other chemicals were of the highest commercial grade. [^35 S]-GTPγS was purchased from NEN Life Science Products, Inc., Pittsburgh, Pa. [^125 I]-human calcitonin was purchased from Amersham Pharmacia Biotech, Inc., Piscataway, N.J.
Methods for C1a pcDNA construction and transfection have been previously described (Albrandt, et al. 1993, FEBS Letters, 325:225-232). HEK293 cell lines stably expressing the rat C1a-type calcitonin receptor (C1a/293) or the human C1a-type calcitonin receptor (1154/293) were selected by G418 resistance and limiting dilution culture methods.
Confluent cells were detached from tissue culture flasks by incubation with 5 mM EDTA in PBS. Cells were homogenized in ice-cold 20 mM HEPES, pH 7.4 with a Polytron homogenizer. Plasma membranes were collected using three cycles of washing in fresh buffer followed by centrifugation for 15 minutes at 48,000×g. The final membrane pellet was resuspended in 20 mM HEPES buffer containing 0.2 mM phenylmethylsulfonyl fluoride (PMSF) and stored at -70° C.
Assay buffer contained 1 μM GDP, 1 mM EDTA, 5 mM MgCl2, 20 mM Hepes, and 150 mM NaCl, pH 7.4. Membranes (7.5 μg membrane protein/well), [^35 S]-GTPγS (200 pM), and peptides were combined in 200 μL buffer in 96-well microtiter plates. After a 75 minute incubation at room temperature, well contents were harvested onto GF/B glass fiber pads using a Tomtec Mach II plate harvestor (Hamden, Conn.). Dried pads were combined with scintillant and counted on a Wallac LKB Beta Plate scintillation counter. For concentration response curves, samples were run in duplicate over a 6 log concentration range starting at 10^-6 M or 10^-7 M. Maximum agonist-specific binding was measured in the presence of 1 μM human calcitonin, constitutive binding was measured in the presence of buffer alone.
Peptide potencies (1C50 's for competitive binding, and EC50 's for concentration response curves) were calculated by non-linear regression using Prism (version 2.01, GraphPAD Software, San Diego, Calif.).

| SMILES | EC50 [nM] |
| --- | --- |
| CC(C)C[C@H](NC(=O)[C@H](CCCNC(=N)N)NC(=O)[C@H](C)NC(=O)[C@@H](NC(=O)[C@H](C)NC(=O)[C@@H]1CSSC[C@H](NC(=O)[C@@H](N)CCCCN)C(=O)N[C@@H](CC(N)=O)C(=O)N[C@@H]([C@@H](C)O)C(=O)N[C@@H](C)C(=O)N[C@@H]([C@@H](C)O)C(=O)N1)[C@@H](C)O)C(=O)N[C@@H](C)C(=O)N[C@@H](C)C(=O)N[C@@H](Cc1ccccc1)C(=O)N[C@@H](CC(C)C)C(=O)N[C@@H](C)C(=O)N[C@@H](CCCNC(=N)N)C(=O)N[C@@H](CO)C(=O)N[C@@H](CO)C(=O)NCC(=O)N[C@@H](Cc1ccc(O)cc1)C(N)=O [Example 1] (H-KCNTATCATARLAAFLARSSGY-NH2; disulfide 2-7) | 0.7 |
| CC(C)C[C@H](NC(=O)[C@H](CCCNC(=N)N)NC(=O)[C@H](C)NC(=O)[C@@H](NC(=O)[C@H](C)NC(=O)[C@@H]1CSSC[C@H](N)C(=O)N[C@@H](CC(N)=O)C(=O)N[C@@H]([C@@H](C)O)C(=O)N[C@@H](C)C(=O)N[C@@H]([C@@H](C)O)C(=O)N1)[C@@H](C)O)C(=O)N[C@@H](C)C(=O)N[C@@H](C)C(=O)N[C@@H](Cc1ccccc1)C(=O)N[C@@H](CC(C)C)C(=O)N[C@@H](C)C(=O)N[C@@H](CCCNC(=N)N)C(=O)N[C@@H](CO)C(N)=O [Example 3] (H-CNTATCATARLAAFLARS-NH2; disulfide 1-6) | 1.2 |
| CC(C)C[C@H](NC(=O)[C@H](CCCNC(=N)N)NC(=O)[C@H](C)NC(=O)[C@@H](NC(=O)[C@H](C)NC(=O)[C@@H]1CSSC[C@H](NC(=O)[C@@H](N)CCCCN)C(=O)N[C@@H](CC(N)=O)C(=O)N[C@@H]([C@@H](C)O)C(=O)N[C@@H](C)C(=O)N[C@@H]([C@@H](C)O)C(=O)N1)[C@@H](C)O)C(=O)N[C@@H](C)C(=O)N[C@@H](CC(N)=O)C(=O)N[C@@H](Cc1ccccc1)C(=O)N[C@@H](CC(C)C)C(=O)N[C@H](C(=O)N[C@@H](CCCNC(=N)N)C(=O)N[C@@H](CO)C(=O)N[C@@H](CO)C(=O)NCC(=O)N[C@@H](Cc1ccc(O)cc1)C(N)=O)C(C)C [Example 5] (H-KCNTATCATARLANFLVRSSGY-NH2; disulfide 2-7) | 5.5 |
| CC(C)C[C@H](NC(=O)[C@H](CCCNC(=N)N)NC(=O)[C@H](C)NC(=O)[C@@H](NC(=O)[C@H](C)NC(=O)[C@H](C)NC(=O)[C@@H](NC(=O)[C@H](CO)NC(=O)[C@@H](N)CC(C)C)[C@@H](C)O)[C@@H](C)O)C(=O)N[C@@H](C)C(=O)N[C@@H](C)C(=O)N[C@@H](Cc1ccccc1)C(=O)N[C@@H](CC(C)C)C(=O)N[C@@H](C)C(=O)N[C@@H](CCCNC(=N)N)C(=O)N[C@@H](CO)C(N)=O [Example 6] (H-LSTAATARLAAFLARS-NH2) | 0.58 |
